SMILES | melting point [°C]
CCOC(=O)Nc1cccc(OC)c1[N+](=O)[O-] | 131 to 132
O=C(NO)c1ccc(CNC(=O)c2[nH]c(-c3ccoc3)cc2-c2ccc(F)cc2)cc1 | 162 to 164
COP(=O)(OC)C(c1ccc(F)cc1)(c1ccc(F)cc1)c1ccc(Cl)cc1 | 136 to 137
CN1CCC(Oc2cccc(Cn3cnc4cc(-c5ccc(Cl)cc5)sc4c3=O)n2)CC1 | 202 to 203
COP(=S)(OC)SCc1cc(=O)[nH]c(C(C)C)n1 | 89 to 93
O=C1CC2CCSc3ccccc3C2=NN1c1ccccc1 (stereo not given) | 138 to 140
Cc1ccc(NCCNS(C)(=O)=O)cc1O | 145
CCOC(=O)c1cnc2ccc(Cl)cc2c1O | > 260
Cc1cc(COc2cccc3c2CN(C2CCC(=O)NC2=O)C3=O)on1 (stereo not given) | 278 to 280
COc1ccccc1N1CCN(CCCNC(=O)NC23CC4CC(CC(C4)C2)C3)CC1 | 181 to 182
Cc1ccc(=NC(=O)C(F)(F)F)n(-c2cccc(C(F)(F)F)c2)c1 | 115
N#Cc1ccc(CCCN)cc1 | 72 to 74
COC(=O)c1sccc1Nc1ccccc1[N+](=O)[O-] | 184
N#Cc1ccc(Nc2nc(Oc3c(F)cccc3F)ccc2[N+](=O)[O-])cc1 | 234 to 236
CCc1cc(C(=O)c2ccccc2Cl)c(-n2c(CNC(=O)c3cc4ccccc4[nH]3)nnc2C(C)C)s1 | 209 to 211
COc1ccc(CONCc2ccc(OC)cc2OC)cc1 | 52 to 55
ClC1=Nc2cc(Cl)ccc2Oc2cscc21 | 180 to 182
CN(C)CCCOc1cc2oc3cc(-c4ccccc4Cl)c4c(c3c2cc1O)C(=O)NC4=O | 255 to 258
c1ccc(-c2cnc(-c3ccccc3)s2)cc1 | 102 to 105
CCONC(O)(CC)C1C(=O)C=C(CC)OC1=O (stereo not given) | 63 to 64
CC1(C)CCc2ccc(OCCCCN3CCN(c4cccc(Cl)c4Cl)CC3)cc2NC1=O | 110 to 112
Cc1cc(SCc2ccc(OCc3ccccc3)cc2)ccc1OCC(=O)O | 120 to 121
COC(=O)c1ccc(Cn2c(C(F)(F)F)nc3cc(C)c(C)cc32)cc1 | 150 to 152
O=C(O)COc1nnc(C(F)(F)F)s1 | 58
CCOC(=O)Cc1ccc(C(=O)CN2CCN(c3ccncc3)CC2)cc1 | 122 to 124

SMILES | melting point [°C]
CN1N=C2C(=Cc3ccccc3)CN(C(=O)CCCl)CC2C1c1ccccc1 (stereo not given) | 134 to 136
CC(C)(C)c1cc(N=C2CCCc3cc4c(nc32)C(=Nc2cc(C(C)(C)C)cc(C(C)(C)C)c2)CCC4)cc(C(C)(C)C)c1 | 129 to 132
CC[C@@]12C[C@@](C)(O)[C@](O)(c3ccccc3)C[C@H]1CCc1cc(OCC(=O)O)ccc12 | 190 to 191
CNC1CCc2[nH]c3ccc(OCc4ccccc4)cc3c2C1 (stereo not given) | 120 to 121
CCCCCCCCC1C=C(Oc2ccc(C(=O)O)o2)C=C2N=C3CCCCC3=C21 (stereo not given) | 142 to 144
Cc1cccc2c(N3CCS(=O)CC3)nc(N3CCNCC3)cc12 | 201 to 203
CC(=O)Oc1c(C)c2c(c(C)c1OC(C)=O)SC(C)O2 (stereo not given) | 82 to 84
CCOC(=O)c1cc2c(s1)-c1c(SC)sc(C(=O)OCC)c1CC2 | 107 to 108
COc1ccc2nc(COc3ccc(CC(Nc4ccccc4C(=O)c4ccccc4)C(=O)O)cc3)n(C)c2c1 (stereo not given) | 140 to 146
CCn1ncc2c1ncc1c(Nc3cccc(C(F)(F)F)c3)nc3cc(C)nn3c12 | 205 to 206
N#Cc1cnc2cc(C#CCO)ccc2c1Nc1ccc(Cl)cc1Cl | 251 to 253
CCc1nn(C2CCCC2)c2cc(C(=O)NCc3ccncc3)ccc12 | 147 to 149
c1cc(CN2CCCCC2)ccc1CN1CCCCC1 | 86 to 88
CCNC(=NC#N)NC | 120 to 124
O=C(Nc1ccccc1C(F)(F)F)c1c(O)c2ccccc2oc1=O | 157 to 159
O=C(NCc1ccnc(Cl)c1)c1[nH]c2ccc(Cl)cc2c1S(=O)(=O)c1ccccc1 | 263 to 265
COc1cc(C(C)=O)ccc1OC/C=C/CBr | 71 to 72
O=C(O)c1cc(-n2c(-c3ccccc3)cc3ccccc32)ccc1O | 210 to 212
CSc1nnc(SCc2ccc(Cl)cc2)s1 | 77 to 78
Cc1nnc2n1-c1ccccc1NC2C (stereo not given) | 172 to 173
O=C(On1nnc2ccc(Cl)cc21)c1ccccc1 | 132
CC(=O)NCCc1cccc2ccc(O)cc12 | 125 to 126
CCOc1cc2cc(C3=NNC(=O)CC3C)sc2cc1OCC (stereo not given) | 170 to 171
CN(C)C(=O)N1CC(Sc2ccc(Cl)cc2)C1 | 96 to 97
Cc1ccccc1NC(=N)NC12CC3CC(CC(C3)C1)C2 | 160 to 161

SMILES | melting point [°C]
CC(C)CC(=O)Nc1cccc(-c2ccnc3c(C(=O)C4CCCC4)cnn23)c1 | 69 to 71
COC(=O)c1ccc(CC(C)NCC(O)c2ccc(O)c(C)c2)cc1 (stereo not given) | 103 to 107
CS(=O)(=O)c1ccc(-n2cnc(Cl)c2-c2ccc(Cl)nc2)cc1 | 223
CC(/C=C/C=C(\C)C1=Cc2cc(C(F)(F)F)ccc2OC1)=C\C(=O)O | 245 to 246
COC(=O)c1cc(Cl)c2c(c1OC)CCN2C(C)=O | 107 to 109
COCC1CN(C(=O)c2cc(OC)c(OC)c(OC)c2)CCN1C(=O)c1csc(-c2ccc(OC)c(OC)c2)n1 (stereo not given) | 149 to 151
Cc1ncsc1C(=O)Nc1ccc(-n2nc(C(F)(F)F)c(Cl)c2C2CC2)cc1 | 161 to 164
CN(C)CCN(c1ccccc1NCCOc1ccc(Cl)cc1)S(=O)(=O)c1ccc(Cl)cc1 | 99
CCOC(=O)Cc1nc(-c2ccc(F)cc2)c(-c2ccc(S(C)(=O)=O)cc2)o1 | 123 to 124
COc1ccc2c(c1)C(N(CC(=O)O)C(=O)C(C)CSC(C)=O)CC2 (stereo not given) | 106 to 110
CS(=O)(=O)N1CC2(COc3cc4c(cc32)OCO4)c2ccccc21 (stereo not given) | 215 to 217
O=C1CCCc2c1cccc2N1CCN(CCCCOc2ccc3ccc(=O)[nH]c3n2)CC1 | 158 to 160
COc1ccc2c(c1)c(=O)c(-c1nnnn1C)cn2C | 280 to 283
COC(=O)C(Cc1ccc(OCc2nc3ccc(OC)cc3n2C)cc1)NS(C)(=O)=O (stereo not given) | 168 to 171
CC(n1cncn1)C(O)(Cn1cncn1)c1ccc(F)cc1 (stereo not given) | 103 to 106
O=C1CCC(CCN2CCN(c3cc(C(F)(F)F)ccc3F)CC2)CC1 | 75 to 76
CS(=O)c1ccc(Oc2ccc(Cl)c(Cl)c2)nc1 (stereo not given) | 88 to 90
CN1CCN(c2ccc3nc(N)c(C#N)c(O)c3c2)CC1 | 156
COc1cc(OC)cc(C(=CC#N)c2ccc3c(c2)nc(C)n3C)c1 | 199 to 201
C=Cc1ccc(NS(C)(=O)=O)c(F)c1 | 82
CCOC(=O)c1cn(C2CN(C(c3ccccc3)c3ccccc3)C2)c2cc(F)c(F)cc2c1=O | 196 to 201
COC(=O)Cc1nc(-c2ccc(C)cc2)oc1C | 59 to 60
CCC(CCNC(=O)CC#N)NC(=O)CC#N (stereo not given) | 125
CCCCCCCCCCCCCCCCCCOc1cc(OCCCCCc2cccc(O)c2O)cc(N(CC(=O)O)CC(=O)O)c1 | 129 to 131
COc1ccc2[nH]c3c(C(=O)O)cccc3c2c1 | 262

SMILES | melting point [°C]
O=C(O)c1cc(Cl)cc(I)c1O | 160 to 163
CC(C)(C)OC(=O)NC12CC3CC(C1)CC(OS(C)(=O)=O)(C3)C2 | 100 to 102
COC(=O)c1ccc(NC(=O)c2sc3ccc(OC)cc3c2SC(C)C)cc1 | 158
O=C(O)c1ccc(Cl)c(S(=O)(=O)NC2CCCCCCC2)c1 | 134
O=CCCc1c[nH]c2ccc(F)cc12 | 79 to 80
CO[C@]12C[C@@H](CN3CCC(O)(c4cccc(C(F)(F)F)c4)CC3)CN(C)[C@@H]1Cc1c[nH]c3cccc2c13 | 135 to 140
O=S(=O)(Br)c1ccc(Cl)s1 | 35 to 37
CCOC(=O)c1ccccc1C(=O)c1cccc(NC(=O)c2ccn3c2CSC3c2cccnc2)c1 (stereo not given) | 150
O=C1Nc2ccccc2N(C(=O)N2CCC(CCCCN3CCCC3)CC2)c2ncccc21 | 193 to 195
O=C(NC(=O)c1c(F)cccc1F)Nc1ccc(SC(F)(F)C(F)F)cc1F | 177 to 179
O=S(=O)(CCl)N(Cc1cccnc1)c1ccc(Cl)cc1 | 98 to 100
O=C(Nc1cnc(-c2ccccc2)[nH]c1=O)OCc1ccccc1 | 217 to 219
Nc1cc(Oc2ccc3c(C(=O)O)cccc3c2)ncn1 | 288 to 290
CC(C)(C)c1cc(NC(=O)C=Cc2ccccc2)cc(C(C)(C)C)c1O | 211 to 214
COc1ccc(CC(C)CC(C(=O)C(CC(C)Cc2ccc(OC)c(OC)c2)N2C(=O)c3ccccc3C2=O)N2C(=O)c3ccccc3C2=O)cc1OC (stereo not given) | 128
Cc1c(NC(=O)CC(C)(C)C)c(C)c2c(c1-c1cncnc1)OCC2c1ccc(C(C)C)cc1 (stereo not given) | 167 to 169
COc1ccc(OC2SCC(O)C(O)C2O)cn1 (stereo not given) | 159 to 161
OCCCCOC(c1ccccc1)(c1ccccc1)c1ccccc1 | 73 to 74
CCC(=O)N(CC)c1cccc(C(=O)C=CN(C)C)c1 | 105 to 107
COc1cc(OC)cc(N2CCN(C(=S)Nc3cc(C(C)O)c(C)nc3OC)CC2)c1 (stereo not given) | 189 to 190
CC(C)(C)OC(=O)N1CCC(c2nc3cc(-c4ccc(-c5nnn[nH]5)c(F)c4)ccc3o2)CC1 | 163 to 167
CON1C(C)(C)CC(OC(=O)C2=C(c3ccccc3)C(c3ccccc3)OC2=O)CC1(C)C (stereo not given) | 143 to 146
CCCc1c(OCCCCCCc2cc(O)c(O)cc2F)ccc(C(=O)O)c1O | 110 to 111
COc1cc(-c2n[nH]c3c2Cc2ccccc2-3)cc(OC)c1OC | 185 to 187
O=C(O)c1ccc2nc(-c3ccc(C(=O)NC4CCCCC4)cc3)[nH]c2c1 | 334 to 337
